Laboratory results published in EP0483928A1, “2-Saccharinylmethyl aryl carboxylates useful as proteolytic enzyme inhibitors and compositions and method of use” (STERLING WINTHROP INC., priority 1990, dated 1992).
Read-outs that look alike come from different tables or passages of the source.

Target: T1, human leukocyte elastase (HLE) (Homo sapiens, UniProt P08246)
T1 sequence (P08246 30-267): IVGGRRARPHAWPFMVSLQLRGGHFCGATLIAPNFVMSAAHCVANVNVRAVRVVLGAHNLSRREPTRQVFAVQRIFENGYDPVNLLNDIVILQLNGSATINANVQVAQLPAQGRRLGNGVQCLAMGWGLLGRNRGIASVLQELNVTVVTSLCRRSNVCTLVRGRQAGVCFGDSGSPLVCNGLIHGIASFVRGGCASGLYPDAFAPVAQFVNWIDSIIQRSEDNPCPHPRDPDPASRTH
Experiment: Inhibition of human leukocyte elastase: rate of inactivation kon and inhibition constant Ki* (koff/kon)
Assay type: biochemical

[1] = Ki* = koff/kon, calculated from measured koff and kon, not a truly reversible Ki, read-out: K*i

Procedure: Thus, instead of measuring a Ki, a Ki* is calculated which is defined as the ratio of the koff/kon, the rate of reactivation of the enzyme to the rate of inactivation of the enzyme. The values of koff and kon are measured and Ki* is then calculated.
The rate of inactivation, kon, of enzymatic activity was determined for the compounds tested by measuring the enzyme activity of an aliquot of the respective enzyme as a function of time after addition of the test compound. […] The rate of inactivation is then equal to [formula] where [I] is the concentration of the inhibiting compound.
The reactivation constant, koff, is similarly determined, and the inhibition constant, Ki*, is then calculated as Ki * = koff /kon [formula]

Row | SMILES | Ki [1] [nM] | Ki [nM]
1 | CC(C)c1cccc2c1C(=O)N(COC(=O)c1c(Cl)ccc(S(=O)(=O)N3CCN(C)CC3)c1Cl)S2(=O)=O [Example 1V] | 0.007 | 
2 | CCc1c(OC)cc(OC)c2c1C(=O)N(COC(=O)c1c(Cl)cccc1Cl)S2(=O)=O [Example 1AY] | 0.9 | 
3 | COc1ccc(C(=O)OCN2C(=O)c3ccccc3S2(=O)=O)c(OC)c1 [Example 1E] | 18 | 
4 | COc1cc(C(C)C)c2c(c1)S(=O)(=O)N(COC(=O)c1c(Cl)ccc(OCCN(C)C)c1Cl)C2=O [Example 1AS] | 0.013 | 
5 | CC(C)c1cccc2c1C(=O)N(COC(=O)c1c(Cl)ccc(O)c1Cl)S2(=O)=O [Example 2A, 4-isopropyl-2-saccharinylmethyl 2,6-dichloro-3-hydroxybenzoate] | 0.04 | 
6 | CC(C)c1cccc2c1C(=O)N(COC(=O)c1c(Cl)ccc(S(=O)(=O)N(C)CCCN(C)C)c1Cl)S2(=O)=O [Example 1AF] | 0.01 | 
7 | COc1cc(C(C)C)c2c(c1)S(=O)(=O)N(COC(=O)c1c(F)cccc1F)C2=O [Example 1BL] | 0.043 | 
8 | COc1cc(C(C)C)c2c(c1OC)S(=O)(=O)N(COC(=O)c1c(Cl)cccc1Cl)C2=O [Example 1BF] | 2 | 
9 | CC(C)c1cccc2c1C(=O)N(COC(=O)c1c(Cl)ccc(S(=O)(=O)N(C)CCN(C)C)c1Cl)S2(=O)=O [Example 1AA] | 0.01 | 
10 | CC(C)c1cc(OCC2COC(C)(C)O2)cc2c1C(=O)N(COC(=O)c1c(Cl)cccc1Cl)S2(=O)=O (centres unmarked) [Example 5C] | 0.03 | 
11 | CC(C)c1cc(OCC(=O)OCc2ccccc2)cc2c1C(=O)N(COC(=O)c1c(Cl)cccc1Cl)S2(=O)=O [Example 7B, 6-(2-benzyloxy-2-oxoethoxy)-4-isopropyl-2-saccharinylmethyl 2,6-dichlorobenzoate] | 0.056 | 
12 | CC(C)c1cc(O)cc2c1C(=O)N(COC(=O)c1c(Cl)cccc1Cl)S2(=O)=O [Example 1C, 4-isopropyl-6-hydroxysaccharinylmethyl 2,6-dichlorobenzoate] | 0.4 | 
13 | O=C(OCN1C(=O)c2ccccc2S1(=O)=O)c1c2ccccc2cc2ccccc12 [Example 1AM] | 2.1 | 
14 | CCOP(=O)(OCC)c1cccc(C(=O)OCN2C(=O)c3c(C(C)C)cc(OC)cc3S2(=O)=O)c1 [Example 1BE] |  | 0.064
15 | CC(C)Oc1cc(C(C)C)c2c(c1)S(=O)(=O)N(COC(=O)c1c(Cl)cccc1Cl)C2=O [Example 5B] | 0.057 | 
16 | CC(C)c1cccc2c1C(=O)N(COC(=O)c1ccc(Cl)cc1Cl)S2(=O)=O [Example 1AO] | 1 | 
17 | CC(C)c1cc(OCC(O)CO)cc2c1C(=O)N(COC(=O)c1c(Cl)cccc1Cl)S2(=O)=O (centres unmarked) [Example 6, 6-(2,3-dihydroxypropoxy)-4-isopropylsaccharinylmethyl 2,6-dichlorobenzoate] | 0.016 | 
18 | CC(C)C1CCCC2=C1C(=O)N(COC(=O)c1c(Cl)ccc(S(=O)(=O)N(C)CCN(C)C)c1Cl)S2(=O)=O (centres unmarked) [Example 9E, 4-isopropyl-4,5,6,7-tetrahydro-2-saccharinylmethyl 2,6-dichloro-3-[[2-(N,N-dimethylamino)ethyl]-N-methylaminosulfonyl]benzoate hydrochoride] | 2 | 
19 | CC(C)c1cccc2c1C(=O)N(COC(=O)c1c(Cl)ccc(S(=O)(=O)N3CCOCC3)c1Cl)S2(=O)=O [Example 1U] | 0.01 | 
20 | CCCc1c(OC)c(OC)cc2c1C(=O)N(COC(=O)c1c(Cl)cccc1Cl)S2(=O)=O [Example 1BA] | 0.078 | 
21 | COc1cc(C(C)C)c2c(c1)S(=O)(=O)N(COC(=O)c1c(OC)ccc(NC(C)=O)c1OC)C2=O [Example 1BR] | 0.057 | 
22 | CCOc1cc(C(C)C)c2c(c1)S(=O)(=O)N(COC(=O)c1c(Cl)cccc1Cl)C2=O [Example 5A, 6-ethoxy-4-isopropyl-2-saccharinylmethyl 2,6-dichlorobenzoate] | 0.05 | 
23 | CC(C)c1cccc2c1C(=O)N(COC(=O)c1cccc(OCc3ccccc3)c1)S2(=O)=O [Example 1X] | 0.5 | 
24 | CC(C)c1cccc2c1C(=O)N(COC(=O)c1c(Cl)ccc(S(=O)(=O)N3CCN(Cc4ccccc4)CC3)c1Cl)S2(=O)=O [Example 1Z, 4-isopropyl-2-saccharinylmethyl 2,6-dichloro-3-(4-benzyl-1-piperazinyl-sulfonyl)benzoate] | 0.06 | 
25 | CC(C)c1cc(OCC(=O)OC(C)(C)C)cc2c1C(=O)N(COC(=O)c1c(Cl)cccc1Cl)S2(=O)=O [Example 7A, 6-(2-t-butoxy-2-oxoethoxy)-4-isopropyl-2-saccharinylmethyl 2,6-dichlorobenzoate] | 0.08 | 
26 | COc1cc(C(C)C)c2c(c1)S(=O)(=O)N(COC(=O)c1c(Cl)ccc(S(=O)(=O)NCC(=O)O)c1Cl)C2=O [Example 2D, 4-isopropyl-6-methoxy-2-saccharinylmethyl 2,6-dichloro-3-carboxymethylamino-sulfonylbenzoate] | 0.008 | 
27 | COc1cc2c(c(C(C)C)c1OC)C(=O)N(COC(=O)c1c(Cl)cccc1Cl)S2(=O)=O [Example 1BB] | 0.35 | 
28 | CCCc1c(OC)c(OC)cc2c1C(=O)N(COC(=O)c1c(Cl)ccc(OCCN3CCOCC3)c1Cl)S2(=O)=O [Example 1BD] | 0.07 | 

The remaining compounds from weak to strong by Ki [1], led by results:

Row | Ki [1] [nM] | SMILES | Ki [nM]
29 | 4 | O=C(O)CNS(=O)(=O)c1ccc(Cl)c(C(=O)OCN2C(=O)c3ccccc3S2(=O)=O)c1Cl [Example 1T] | 
30 | 3 | O=C(OCN1C(=O)c2ccccc2S1(=O)=O)c1cccc2ccccc12 [Example 1F] | 
31 | 2 | O=C(OCN1C(=O)c2ccccc2S1(=O)=O)c1c(Cl)ccc(S(=O)(=O)N2CCOCC2)c1Cl [Example 1S] | 
32 | 0.6 | COc1cc(C(C)C)c2c(c1OC)S(=O)(=O)N(COC(=O)c1c(Cl)ccc(S(=O)(=O)N3CCN(C)CC3)c1Cl)C2=O [Example 1BH] | 
33 | 0.6 | O=C(OCN1C(=O)C2=C(C3CCC2C3)S1(=O)=O)c1c(Cl)cccc1Cl (centres unmarked) [Example 8, 2-(2,6-dichlorobenzoyloxymethyl)4,5,6,7-tetrahydro-4,7-methano-1,2-benzisothiazol-3(2H)-one 1,1-dioxide] | 
34 | 0.48 | CC(C)c1cccc2c1C(=O)N(COC(=O)c1cccc3ccccc13)S2(=O)=O [Example 1I] | 
35 | 0.35 | COc1cc(C(C)C)c2c(c1)S(=O)(=O)N(COC(=O)c1c(OC)cc(OCc3ccccc3)cc1OC)C2=O [Example 1BP] | 
36 | 0.3 | COc1cc(C(C)C)c2c(c1)S(=O)(=O)N(COC(=O)c1c(C)cc(OCc3ccccc3)cc1C)C2=O [Example 1BZ] | 
37 | 0.25 | CC(C)c1cccc2c1C(=O)N(COC(=O)c1cc(Cl)ccc1Cl)S2(=O)=O [Example 1M] | 
38 | 0.2 | CN(C)c1cccc2c1C(=O)N(COC(=O)c1c(Cl)cccc1Cl)S2(=O)=O [Example 11, 4-dimethylamino-2-saccharinylmethyl 2,6-dichlorobenzoate] | 
39 | 0.12 | CC(C)c1cccc2c1C(=O)N(COC(=O)c1c(Cl)ccc(OCc3ccccc3)c1Cl)S2(=O)=O [Example 1Y] | 
40 | 0.088 | COc1cc(C(C)C)c2c(c1)S(=O)(=O)N(COC(=O)c1c(OC)cccc1OC)C2=O [Example 1BK] | 
41 | 0.08 | COc1cc(C(C)C)c2c(c1)S(=O)(=O)N(COC(=O)c1c(C)cccc1C)C2=O [Example 1BM] | 
42 | 0.068 | COc1cc(F)c(C(=O)OCN2C(=O)c3c(C(C)C)cc(OC)cc3S2(=O)=O)c(F)c1 [Example 1BQ] | 
43 | 0.054 | CC(C)c1cc(OC2CCC2)cc2c1C(=O)N(COC(=O)c1c(Cl)cccc1Cl)S2(=O)=O [Example 5G] | 
44 | 0.05 | COc1cc(OC)c(C(=O)OCN2C(=O)c3c(C(C)C)cc(OC)cc3S2(=O)=O)c(OC)c1 [Example 1BO] | 

Row | Ki [1] [nM] | SMILES | Ki [nM]
45 | 0.043 | CC(C)c1cc2c(c3c1C(=O)N(COC(=O)c1c(Cl)cccc1Cl)S3(=O)=O)OCO2 [Example 1BG] | 
46 | 0.036 | COc1cc(C(C)C)c2c(c1)S(=O)(=O)N(COC(=O)c1ccccc1C(C)C)C2=O [Example 1BS] | 
47 | 0.03 | COCCOCCOc1cc(C(C)C)c2c(c1)S(=O)(=O)N(COC(=O)c1c(Cl)cccc1Cl)C2=O [Example 5D] | 
48 | 0.03 | COc1cc(C(C)C)c2c(c1)S(=O)(=O)N(COC(=O)c1c(Cl)ccc(OCCN3CCCCC3)c1Cl)C2=O [Example 1AU] | 
49 | 0.029 | CC(C)c1cc2c(c3c1C(=O)N(COC(=O)c1c(Cl)ccc(OCCN4CCOCC4)c1Cl)S3(=O)=O)OCO2 [Example 1BJ] | 
50 | 0.027 | COCC(COc1cc(C(C)C)c2c(c1)S(=O)(=O)N(COC(=O)c1c(Cl)cccc1Cl)C2=O)OC (racemic) [Example 5F] | 
51 | 0.025 | CC(C)c1cccc2c1C(=O)N(COC(=O)c1c(Cl)cc(OCCN3CCOCC3)cc1Cl)S2(=O)=O [Example 1BY] | 
52 | 0.025 | COc1cc(Cl)c(C(=O)OCN2C(=O)c3c(C(C)C)cccc3S2(=O)=O)c(Cl)c1 [Example 1AC] | 
53 | 0.023 | CCN(CC)CCOc1ccc(Cl)c(C(=O)OCN2C(=O)c3c(C(C)C)cc(OC)cc3S2(=O)=O)c1Cl [Example 1AV] | 
54 | 0.017 | COC(=O)COc1cc(C(C)C)c2c(c1)S(=O)(=O)N(COC(=O)c1c(Cl)cccc1Cl)C2=O [Example 5E] | 
55 | 0.016 | COc1ccc(Cl)c(C(=O)OCN2C(=O)c3c(C(C)C)cccc3S2(=O)=O)c1Cl [Example 1AB] | 
56 | 0.01 | CC(C)c1cccc2c1C(=O)N(COC(=O)c1c(F)ccc(S(=O)(=O)N3CCN(C)CC3)c1F)S2(=O)=O [Example 1AG] | 
57 | 0.01 | CC(C)c1cccc2c1C(=O)N(COC(=O)c1c(Cl)ccc(S(=O)(=O)NCC(=O)O)c1Cl)S2(=O)=O [Example 1W] | 
58 | 0.01 | CC(C)c1cccc2c1C(=O)N(COC(=O)c1c(Cl)ccc(OCC(=O)O)c1Cl)S2(=O)=O [Example 3, 4-isopropyl-2-saccharinylmethyl 2,6-dichloro-3-carboxymethoxybenzoate] | 
59 | 0.009 | CC(C)c1cccc2c1C(=O)N(COC(=O)c1c(Cl)ccc(OCCN(C)C)c1Cl)S2(=O)=O [Example 1AE] | 
